This assay addresses T1, Human Rheumatoid Synovial collagenase (Homo sapiens, UniProt P03956).
T1 construct: Synovial collagenase; from tissue; host or cells: human rheumatoid synovium (from the enzyme's printed name)
T1 sequence (P03956 100-469): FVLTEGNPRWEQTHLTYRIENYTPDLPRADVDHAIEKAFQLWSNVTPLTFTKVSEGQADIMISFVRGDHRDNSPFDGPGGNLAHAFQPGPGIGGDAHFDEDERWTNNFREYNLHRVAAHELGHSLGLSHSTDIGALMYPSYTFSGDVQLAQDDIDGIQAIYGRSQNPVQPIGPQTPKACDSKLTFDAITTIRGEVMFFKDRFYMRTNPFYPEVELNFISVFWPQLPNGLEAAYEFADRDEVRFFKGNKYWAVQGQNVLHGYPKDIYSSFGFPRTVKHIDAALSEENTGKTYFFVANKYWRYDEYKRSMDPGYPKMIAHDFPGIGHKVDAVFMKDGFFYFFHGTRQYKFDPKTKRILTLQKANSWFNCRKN
In words: Inhibition of collagenase: acetyl 14C collagen degradation (Cawston and Barrett), concentration effecting 50% inhibition. It counts as biochemical. The following applies: Table 3; comparison R1 = H vs CH3; 37° C., 16 hours, pH 7.6; read-out: IC50 against human rheumatoid sinovial [collagenase]. On the procedure: This was determined following the procedure of Cawston and Barrett, Anal. Biochem,. 99, 340-345 (1979) whereby the 1 mM of the inhibitor being tested or dilutions thereof are incubated at 37° C. for 16 hours with native collagen and collagenase (buffered with Tris HCl--CaCl2; pH 7.6). The collagen is acetyl ^14 C collagen. The samples are centrifuged to sediment undigested collagen and an aliquot of the radiactive supernatant removed for assay on a scintillation counter as a measure of hydrolysis. The collagenase activity in the presence of 1 mM inhibitor, or a dilution thereof, is compared to activity in a control devoid of inhibitor and the results reported as that inhibitor concentration effecting 50% inhibition of the collagenase.
This was determined following the procedure of Cawston and Barrett, Anal. Biochem., 99, 340-345 (1979) whereby the 1 mM of the inhibitor being tested or dilutions thereof are incubated at 37° C. for 16 hours with native collagen and collagenase (buffered with Tris HCl--CaCl2; pH 7.6). The collagen is acetyl […] collagen. The samples are centrifuged to sediment undigested collagen and an aliquot of the radioactive supernatant removed for assay on a scintillation counter as a measure of hydrolysis. […]

SMILES strings stand for the structures.

Regarding `CNC(=O)[C@@H](NC(=O)C(CC(C)C)C(C)S)[C@@H](C)OCc1ccccc1` (stereo partly drawn) [Example 6 A, N-[2-(1-Mercaptoethyl)-4-methylpentanoyl]-O-benzyl-L-threonine N-Methylamide], the IC50 was 0.45 µM.

A word on the IC50: it is the midpoint of a concentration-inhibition curve.

The values above are taken from patent US4681966A, “Intermediate for thiol based collagenase inhibitors” (G. D. Searle & Co., priority 1986, dated 1987).
